This is an account of results in PubChem BioAssay (NCI).

Structures are written as SMILES.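 All cell lines were grown in 96-well plates and treated with compound for 48 hours. GI50: concentration for 50% inhibition of growth. TGI denotes the concentration required for complete inhibition of growth.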 Where only a bound is given, the exact number is not on record here.

Holding throughout (test): inhibition of tumour cell growth, NCI panel, 48 h
In assay [1] the test system is A498 renal.
Assay [2] concerns K-562 leukemia.
Assay [3] has as its system NCI-H460 lung.
Assay [4] deals with SK-MEL-28 melanoma.
In assay [5] the test system is U251 CNS.
The test system of assay [6] is MOLT-4 leukemia.
In assay [7] the test system is NCI/ADR-RES ovarian.
Assay [8] concerns HL-60(TB) leukemia.
Assay [9] deals with SW-620 colon.
Assay [10] deals with SF-268 CNS.

As to `CO[C@H]1C[C@@H]2CC[C@@H](C)[C@@](O)(O2)C(=O)C(=O)N2CCCC[C@H]2C(=O)O[C@H]([C@H](C)C[C@@H]2CC[C@@H](OP(C)(C)=O)[C@H](OC)C2)CC(=O)[C@H](C)/C=C(\C)[C@@H](O)[C@@H](OC)C(=O)[C@H](C)C[C@H](C)/C=C/C=C/C=C/1C`, the GI50 is less than 0.01 µM in [1]; 11.7 µM in [2]; 11 µM in assay [4]; 0.0208 µM in assay [5]; 2.96 µM in assay [6]; 11 µM in assay [7]. Also, the GI50 in [8] was 17.5 µM; in [9], 12.1 µM; in assay [10], 10.9 µM. In addition, the TGI is 15.5 µM in assay [1]; greater than 69.4 µM in assay [2]; 21.8 µM in assay [3]; 23.8 µM in assay [4]; 19.2 µM in assay [5]; 37.1 µM in assay [6]. For the same compound, the TGI in [7] amounted to 30.8 µM; in assay [8] it was 39.8 µM; in assay [9] it was 27.9 µM; in assay [10] it was 23.6 µM.
With `CCN(CC)CCCOc1cc(O)c2c(=O)cc(-c3ccccc3)oc2c1`, the GI50 was 10.2 µM in [1]; 1.48 µM in assay [2]; 4.2 µM in assay [3]; 3.42 µM in assay [4]; 10.6 µM in [5]; 3.29 µM in [6]. Also, the GI50 in [7] was 13.3 µM; in assay [8], 3.98 µM; in assay [9] it was 6.27 µM; in [10], 10.1 µM. For the same compound, the TGI in [1] was 22.4 µM; in assay [2], 3.67 µM; in [3], 14.6 µM; in [4] it was 17 µM; in assay [5], 22.4 µM; in [6] it was 8.71 µM. In addition, the TGI worked out at 27.1 µM in assay [7], 15.3 µM in [8], 19.3 µM in [9] and 22.9 µM in assay [10].
With `C=CC(=O)N1CCC([C@@H]2CCNc3c(C(N)=O)c(-c4ccc(Oc5ccccc5)cc4)nn32)CC1`, the GI50 is 1.67 µM in [1]; 25.3 µM in assay [2]; 29.8 µM in [3]; 15.6 µM in assay [4]; 17.6 µM in assay [5]; 15.9 µM in [6]. For the same compound, the GI50 in assay [7] was 17.8 µM; in assay [8], 15.5 µM; in assay [9], 19.2 µM; in assay [10] it was 9.07 µM. For the same compound, the TGI is 9.25 µM in assay [1]; greater than 100 µM in [2]; greater than 89.7 µM in assay [3]; 30.6 µM in assay [4]; greater than 77.1 µM in [5]; greater than 93.6 µM in assay [6]. For the same compound, the TGI is greater than 96.6 µM in [7], 49.7 µM in assay [8], 46.1 µM in [9] and 34.4 µM in [10].
In the case of `COc1cc2nc(N3CCCC3)nc(Nc3ccccc3)c2cc1OC`, the GI50 in assay [1] is 1.02 µM; in assay [2] it was 0.382 µM; in assay [3] it was 1.86 µM; in assay [4], 1.76 µM; in [5] it was 1.02 µM; in [6], 1.54 µM. Besides, the GI50 in [7] is 1.74 µM; in assay [8], 0.635 µM; in assay [9], 1.52 µM; in assay [10] it was 1.85 µM. Besides, the TGI was found to be 2.28 µM in assay [1]; 2.07 µM in assay [2]; 3.59 µM in [3]; 3.18 µM in [4]; 2.45 µM in assay [5]; 4.33 µM in assay [6]. The TGI in assay [7] was found to be 4.07 µM; in assay [8], 2.42 µM; in assay [9], 3.17 µM; in [10] it was 3.93 µM.
For `CNNC(=N\S(=O)(=O)c1cc(C(=O)Nc2ccc(Cl)cc2)c(Cl)cc1SCc1ccccc1)/N=C/c1ccc([N+](=O)[O-])s1`, the GI50 was greater than 100 µM in assay [1]; 15.9 µM in [2]; 3.91 µM in [3]; greater than 100 µM in assay [4]; greater than 100 µM in assay [5]; greater than 100 µM in assay [6]. For the same compound, the GI50 in assay [7] was greater than 100 µM; in [8], greater than 100 µM; in assay [9], greater than 20.9 µM; in assay [10], greater than 100 µM. The TGI in assay [1] was greater than 100 µM; in assay [2] it was greater than 100 µM; in assay [3], greater than 27.7 µM; in assay [4] it was greater than 100 µM; in assay [5] it was greater than 100 µM; in [6], greater than 100 µM. Also, the TGI in [7], in assay [8], in assay [9] and in [10] was greater than 100 µM in each case.
Take `CC1(C)N=C(N)N=C(N)N1c1cccc(CCCCc2ccccc2)c1`: the GI50 was 1.75 µM in [1]; 0.0688 µM in assay [2]; 0.0493 µM in assay [3]; 0.894 µM in assay [4]; 0.0541 µM in assay [5]; 0.319 µM in assay [6]. Further, the GI50 was greater than 73.4 µM in [7], 0.0925 µM in [8], 0.0532 µM in assay [9] and 0.0735 µM in [10]. The TGI in [1] is 15.9 µM; in assay [2], 13.6 µM; in [3], 11.4 µM; in assay [4] it was 15.6 µM; in assay [5] it was 13.5 µM; in assay [6] it was 8.76 µM. For the same compound, the TGI in assay [7] was greater than 100 µM; in assay [8], 2.52 µM; in assay [9] it was 16.4 µM; in assay [10], 15 µM.
With `c1ccc(-c2nnc(Nc3ccc4c(c3)OCCO4)o2)c(NCc2ccncc2)c1`, the GI50 in assay [1] was 0.0226 µM; in assay [2], less than 0.01 µM; in assay [3] it was 0.0313 µM; in assay [4] it was 0.0411 µM; in [5], 0.0369 µM; in assay [6], 0.0485 µM. Besides, the GI50 is 0.0162 µM in [7], 0.0236 µM in assay [8], 0.0255 µM in [9] and 0.0696 µM in [10]. Moreover, the TGI in assay [1] was 0.533 µM; in [2], 4.43 µM; in assay [3] it was 15.2 µM; in assay [4], 39 µM; in [5], greater than 35.5 µM; in assay [6], greater than 100 µM. The TGI in [7] was greater than 51.3 µM; in [8], 0.722 µM; in [9], greater than 100 µM; in assay [10] it was greater than 67.6 µM.
